Laboratory results: US20130109682A1, “CYCLIC ETHER COMPOUNDS USEFUL AS KINASE INHIBITORS” (NOVARTIS AG, priority 2010, published 2013)

Molecular target: FGFR3 kinase (Homo sapiens, UniProt P22607)
Assay: FGFR3 kinase inhibition assay (LanthaScreen TR-FRET)
Format: biochemical
Method: FGFR3 Kinase Inhibition Assay
LanthaScreen™ is the detection of Time-Resolved Fluorescence Resonance Energy Transfer (TR-FRET) using lanthanide chelates to measure interactions between various binding partners. The application of TR-FRET to assay kinase activity was first described by Mathis (1995). A TR-FRET assay was used to measure FGFR3 kinase inhibitory activity. The assay panel was run on a Biomek FX liquid handling workstations. To the assay plates containing […] compound or control solutions, 4.5 μL of buffer A (50 mM TRIS-HCl pH 7.4, 2 mM DTT, 0.02% Tween 20, 0.02 mM Na3VO4, H2O nanpure) including a generic concentration of ATP (2 μM f.c.) was added per well, followed by 4.5 μL of buffer B (4 uM ATP in Buffer A) including a generic concentration of polyEAY (50 nM f.c.), FGFR3 kinase, and divalent cations. Final concentration of kinase and cations were: [FGFR3 kinase]=0.20 nM, [Mg]=3 mM, [Mn]=3 mM. After 1 hour of incubation the kinase reactions were stopped by the addition of 4.5 μL of stop solution D (50 mM EDTA, 20 mM TRIS-HCl pH 7.4, 0.04% NP-40) immediately followed by 4.5 μL of buffer A (50 mM TRIS-HCl pH 7.4, 2 mM DTT, 0.02% Tween 20, 0.02 mM Na3VO4, H2O nanpure) including the Tb-labeled P-20 antibody to give a total detection volume of 18 μL. After an incubation time of 45 min in the dark, the plates were transferred into the Pherastar fluorescence reader for counting. The effect of compound on the enzymatic activity was obtained from the linear progress curves and determined from one reading (end point measurement).

FGFR3 kinase, sequence (P22607 23-806): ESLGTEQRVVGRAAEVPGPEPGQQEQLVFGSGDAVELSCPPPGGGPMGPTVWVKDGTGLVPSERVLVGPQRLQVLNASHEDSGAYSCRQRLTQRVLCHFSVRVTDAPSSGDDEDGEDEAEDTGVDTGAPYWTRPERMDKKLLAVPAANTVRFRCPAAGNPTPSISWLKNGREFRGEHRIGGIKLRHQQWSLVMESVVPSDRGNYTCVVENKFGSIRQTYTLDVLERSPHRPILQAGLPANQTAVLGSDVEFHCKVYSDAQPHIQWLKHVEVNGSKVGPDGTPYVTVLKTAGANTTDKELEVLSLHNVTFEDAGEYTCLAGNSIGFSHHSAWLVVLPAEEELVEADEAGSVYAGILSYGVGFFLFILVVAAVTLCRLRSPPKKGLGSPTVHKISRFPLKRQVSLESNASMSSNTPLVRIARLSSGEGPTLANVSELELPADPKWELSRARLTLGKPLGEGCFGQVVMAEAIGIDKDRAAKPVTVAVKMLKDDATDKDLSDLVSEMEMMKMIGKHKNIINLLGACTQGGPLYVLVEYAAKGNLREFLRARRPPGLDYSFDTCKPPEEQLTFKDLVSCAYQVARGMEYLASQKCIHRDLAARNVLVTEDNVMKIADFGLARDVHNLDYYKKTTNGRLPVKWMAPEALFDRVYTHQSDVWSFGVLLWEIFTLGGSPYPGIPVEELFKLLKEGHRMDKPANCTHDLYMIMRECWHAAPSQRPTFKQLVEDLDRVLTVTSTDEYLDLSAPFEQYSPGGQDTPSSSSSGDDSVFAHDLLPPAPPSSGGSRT

## Nc1ncc(-c2ccccc2)nc1C(=O)Nc1cnccc1[C@H]1C[C@@H](O)[C@H](O)[C@@H](CO)O1 [Example 341, 3-amino-N-(4-((2R,4R,5S,6R)-4,5-dihydroxy-6-(hydroxymethyl)tetrahydro-2H-pyran-2-yl)pyridin-3-yl)-6-phenylpyrazine-2-carboxamide]
  IC50: 480 nM

## CCC[C@H]1O[C@@H](c2ccncc2NC(=O)c2nc(-c3ccccc3)cnc2N)C[C@@H](O)[C@@H]1O [Example 340, 3-amino-N-(4-((2R,4R,5S,6R)-4,5-dihydroxy-6-propyltetrahydro-2H-pyran-2-yl)pyridin-3-yl)-6-phenylpyrazine-2-carboxamide]
  IC50: 210 nM

## CC[C@@H]1O[C@H](c2ccncc2NC(=O)c2nc(-c3ccccc3)cnc2N)C[C@H](N)[C@H]1O [Example 342, 3-amino-N-(4-((2S,4S,5R,6S)-4-amino-6-ethyl-5-hydroxytetrahydro-2H-pyran-2-yl)pyridin-3-yl)-6-phenylpyrazine-2-carboxamide]
  IC50: 1600 nM

## Nc1ncc(-c2ccccc2)nc1C(=O)Nc1cnccc1[C@H]1C[C@@H](N)[C@@]2(O)CCC[C@H]2O1 [Example 183, 3-amino-N-(4-((2R,4R,4aS,7aR)-4-amino-4a-hydroxyoctahydrocyclopenta[b]pyran-2-yl)pyridin-3-yl)-6-phenylpyrazine-2-carboxamide]
  IC50: 44 nM

## Nc1ncc(-c2ccccc2)nc1C(=O)Nc1cnccc1[C@@H]1C[C@H](N)[C@]2(O)CCC[C@@H]2O1 [Example 185, 3-amino-N-(4-((2S,4S,4aR,7aS)-4-amino-4a-hydroxyoctahydrocyclopenta[b]pyran-2-yl)pyridin-3-yl)-6-phenylpyrazine-2-carboxamide]
  IC50: > 10000 nM

## C[C@]1(O)[C@H](N)C[C@H](c2ccncc2NC(=O)c2nc(-c3ccccc3)cnc2N)O[C@@H]1C1CC1 [Example 344, 3-amino-N-(4-((2R,4R,5S,6R)-4-amino-6-cyclopropyl-5-hydroxy-5-methyltetrahydro-2H-pyran-2-yl)pyridin-3-yl)-6-phenylpyrazine-2-carboxamide]
  IC50: 440 nM

## CC(C)(C)[C@H]1O[C@@H](c2ccncc2NC(=O)c2nc(-c3ccccc3)cnc2N)C[C@H](N)[C@@H]1O [Example 286, 3-amino-N-(4-((2R,4S,5S,6R)-4-amino-6-tert-butyl-5-hydroxytetrahydro-2H-pyran-2-yl)pyridin-3-yl)-6-phenylpyrazine-2-carboxamide]
  IC50: 710 nM

## C[C@H]1O[C@@H](c2ccncc2NC(=O)c2nc(-c3ccccc3)cnc2N)C[C@@H](N)[C@]1(C)O [Example 228, 3-amino-N-(4-((2R,4R,5S,6R)-4-amino-5-hydroxy-5,6-dimethyltetrahydro-2H-pyran-2-yl)pyridin-3-yl)-6-phenylpyrazine-2-carboxamide]
  IC50: 320 nM

## C[C@@H]1O[C@H](c2ccncc2NC(=O)c2nc(-c3ccccc3)cnc2N)C[C@H](N)[C@@]1(C)O [Example 229, 3-amino-N-(4-((2S,4S,5R,6S)-4-amino-5-hydroxy-5,6-dimethyltetrahydro-2H-pyran-2-yl)pyridin-3-yl)-6-phenylpyrazine-2-carboxamide]
  IC50: 3400 nM

## CC(C)(C)[C@@H]1O[C@H](c2ccncc2NC(=O)c2nc(-c3ccccc3)cnc2N)C[C@@H](N)[C@H]1O [Example 227, 3-amino-N-(4-((2S,4R,5R,6S)-4-amino-6-tert-butyl-5-hydroxytetrahydro-2H-pyran-2-yl)pyridin-3-yl)-6-phenylpyrazine-2-carboxamide]
  IC50: 2400 nM

## CC(C)[C@H]1C[C@@H](N)C[C@@H](c2ccncc2NC(=O)c2nc(-c3ccccc3)cnc2N)O1 [Example 292, 3-amino-N-(4-((2S,4R,6R)-4-amino-6-isopropyltetrahydro-2H-pyran-2-yl)pyridin-3-yl)-6-phenylpyrazine-2-carboxamide]
  IC50: > 10000 nM

## Nc1ncc(-c2ccccc2)nc1C(=O)Nc1cnccc1[C@@H]1C[C@H](N)[C@@H](O)[C@H](C2CC2)O1 [Example 349, 3-amino-N-(4-((2S,4S,5R,6S)-4-amino-6-cyclopropyl-5-hydroxytetrahydro-2H-pyran-2-yl)pyridin-3-yl)-6-phenylpyrazine-2-carboxamide]
  IC50: 6900 nM

## Nc1ncc(-c2ccccc2)nc1C(=O)Nc1cnccc1[C@H]1C[C@@H](N)[C@H](O)[C@@H](C2CC2)O1 [Example 346, 3-amino-N-(4-((2R,4R,5S,6R)-4-amino-6-cyclopropyl-5-hydroxytetrahydro-2H-pyran-2-yl)pyridin-3-yl)-6-phenylpyrazine-2-carboxamide]
  IC50: 180 nM

## CC[C@H]1O[C@@H](c2ccncc2NC(=O)c2nc(-c3ccccc3)cnc2N)C[C@@H](N)[C@@H]1O [Example 343, 3-amino-N-(4-((2R,4R,5S,6R)-4-amino-6-ethyl-5-hydroxytetrahydro-2H-pyran-2-yl)pyridin-3-yl)-6-phenylpyrazine-2-carboxamide]
  IC50: 35 nM

## CC[C@@H]1O[C@H](c2ccncc2NC(=O)c2nc(-c3ccccc3)cnc2N)C[C@H](N)[C@@]1(C)O [Example 345, 3-amino-N-(4-((2S,4S,5R,6S)-4-amino-6-ethyl-5-hydroxy-5-methyltetrahydro-2H-pyran-2-yl)pyridin-3-yl)-6-phenylpyrazine-2-carboxamide]
  IC50: > 10000 nM

## C[C@@]1(O)[C@@H](N)C[C@@H](c2ccncc2NC(=O)c2nc(-c3ccccc3)cnc2N)O[C@H]1C1CC1 [Example 347, 3-amino-N-(4-((2S,4S,5R,6S)-4-amino-6-cyclopropyl-5-hydroxy-5-methyltetrahydro-2H-pyran-2-yl)pyridin-3-yl)-6-phenylpyrazine-2-carboxamide]
  IC50: 8800 nM

## CC[C@H]1O[C@@H](c2ccncc2NC(=O)c2nc(-c3ccccc3)cnc2N)C[C@@H](N)[C@]1(C)O [Example 348, 3-amino-N-(4-((2R,4R,5S,6R)-4-amino-6-ethyl-5-hydroxy-5-methyltetrahydro-2H-pyran-2-yl)pyridin-3-yl)-6-phenylpyrazine-2-carboxamide]
  IC50: 420 nM

## CC(C)[C@@H]1O[C@H](c2ccncc2NC(=O)c2nc(-c3ccccc3)cnc2N)C[C@H](N)[C@H]1O [Example 240, 3-amino-N-(4-((2S,4S,5R,6S)-4-amino-5-hydroxy-6-isopropyltetrahydro-2H-pyran-2-yl)pyridin-3-yl)-6-phenylpyrazine-2-carboxamide]
  IC50: > 10000 nM

## CC(C)(C)[C@H]1O[C@@H](c2ccncc2NC(=O)c2nc(-c3ccccc3)cnc2N)C[C@@H](N)[C@@H]1O [Example 354, 3-amino-N-(4-((2R,4R,5S,6R)-4-amino-6-tert-butyl-5-hydroxytetrahydro-2H-pyran-2-yl)pyridin-3-yl)-6-phenylpyrazine-2-carboxamide]
  IC50: 870 nM

## CC(C)[C@@H]1C[C@H](N)C[C@H](c2ccncc2NC(=O)c2nc(-c3ccccc3)cnc2N)O1 [Example 291, 3-amino-N-(4-((2R,4S,6S)-4-amino-6-isopropyltetrahydro-2H-pyran-2-yl)pyridin-3-yl)-6-phenylpyrazine-2-carboxamide]
  IC50: 1600 nM

## CC[C@]1(O)[C@H](C)O[C@H](c2ccncc2NC(=O)c2nc(-c3ccccc3)cnc2N)C[C@@H]1N [Example 189, 3-amino-N-(4-((2S,4S,5R,6S)-4-amino-5-ethyl-5-hydroxy-6-methyltetrahydro-2H-pyran-2-yl)pyridin-3-yl)-6-phenylpyrazine-2-carboxamide]
  IC50: 7400 nM

## CC(C)(C)[C@@H]1O[C@H](c2ccncc2NC(=O)c2nc(-c3ccccc3)cnc2N)C[C@H](N)[C@H]1O [Example 355, 3-amino-N-(4-((2S,4S,5R,6S)-4-amino-6-tert-butyl-5-hydroxytetrahydro-2H-pyran-2-yl)pyridin-3-yl)-6-phenylpyrazine-2-carboxamide]
  IC50: > 10000 nM

## CC(C)[C@H]1O[C@@H](c2ccncc2NC(=O)c2nc(-c3ccccc3)cnc2N)C[C@@H](N)[C@@H]1O [Example 356, 3-amino-N-(4-((2R,4R,5S,6R)-4-amino-5-hydroxy-6-isopropyltetrahydro-2H-pyran-2-yl)pyridin-3-yl)-6-phenylpyrazine-2-carboxamide]
  IC50: 220 nM

## CC[C@]1(O)[C@H](N)C[C@H](c2ccncc2NC(=O)c2nc(-c3ccccc3)cnc2N)O[C@@H]1C [Example 187, 3-amino-N-(4-((2R,4R,5S,6R)-4-amino-5-ethyl-5-hydroxy-6-methyltetrahydro-2H-pyran-2-yl)pyridin-3-yl)-6-phenylpyrazine-2-carboxamide]
  IC50: 830 nM
